Test results published in ChEMBL document CHEMBL1158848, “Synthesis and separation of potential anticancer active dihalocephalomannine diastereomers from extracts of Taxus yunnanensis” (1998).

Test: Cytotoxicity against human NCI60 cells
Type: functional

Structure (SMILES) | GI50 [µM] | LC50 (50% lethal concentration) [µM] | TGI [µM]
CC(=O)O[C@H]1C(=O)[C@@]2(C)[C@H]([C@H](OC(=O)c3ccccc3)[C@]3(O)C[C@H](OC(=O)[C@H](O)[C@@H](NC(=O)[C@](C)(Cl)[C@@H](C)Cl)c4ccccc4)C(C)=C1C3(C)C)[C@]1(OC(C)=O)CO[C@@H]1C[C@@H]2O | 0.14 | 29 | 4.2
CC(=O)O[C@H]1C(=O)[C@@]2(C)[C@H]([C@H](OC(=O)c3ccccc3)[C@]3(O)C[C@H](OC(=O)[C@H](O)[C@@H](NC(=O)c4ccccc4)c4ccccc4)C(C)=C1C3(C)C)[C@]1(OC(C)=O)CO[C@@H]1C[C@@H]2O [PACLITAXEL] | 0.00065 |  | 0.15
CC(=O)O[C@H]1C(=O)[C@@]2(C)[C@H]([C@H](OC(=O)c3ccccc3)[C@]3(O)C[C@H](OC(=O)[C@H](O)[C@@H](NC(=O)[C@@](C)(Cl)[C@H](C)Cl)c4ccccc4)C(C)=C1C3(C)C)[C@]1(OC(C)=O)CO[C@@H]1C[C@@H]2O | 0.21 | 32 | 6.3
